Assay results published in US9125855B2, “Prevention of Salmonella recrudescense” (priority 2011, dated 2015).

Tests used:
[1] = system: Salmonella Typhimurium in PAM; test: Intracellular survival assay in PAM; format: cell-based, porcine; conditions: for intracellular proliferation of Salmonella Typhimurium in PAM: 1 μM
Description: Porcine pulmonary alveolar macrophages (PAM) were isolated by broncho-alveolar washes from lungs of euthanized 3 to 4 week old piglets, obtained from a Salmonella-negative farm, as described previously (Dom et al., 1992). The isolated cells were pooled and frozen in liquid nitrogen until further use. Prior to seeding the cells, frozen aliquots of approximately 10^8 cells per ml were thawed and washed 3 times in Hank's buffered salt solution with Ca^2+ and Mg^2+ (HBSS+, Gibco) with 10% (v/v) fetal calf serum (FKS, Hyclone, Cramlington, England) at 4° C. Finally, these cells were cultured in Roswell Park Memorial Institute medium (RPMI, Gibco) containing 10% (v/v) FKS, 1% (v/v) L-glutamine (Gibco), 1% (v/v) sodium pyruvate (Gibco), 1% (v/v) MEM non essential amino acids (NEAA, Gibco) and 1% (v/v) penicillin-streptomycin (Gibco).
(§1) The number of viable bacteria was assessed 24 hours after infection.
Following the IVET screening, the intracellular survival assay was repeated with Salmonella Typhimurium ΔscsA and ΔcbpA and compared to the WT.

[2] = system: Salmonella Typhimurium in IPEC-J2 cells; test: Intracellular survival assay in IPEC-J2 cells; format: cell-based, porcine
Description: The polarized intestinal porcine epithelial (IPEC-J2) cell line is derived from jejunal epithelia isolated from a neonatal piglet (Rhoads et al., 1994; Schierack et al., 2006).
as §1

[3] = system: Salmonella Typhimurium in PAM; test: Invasion assay in PAM; format: cell-based, porcine; conditions: for invasion of Salmonella Typhimurium in PAM: 1 μM
Description: (§2) For the invasion assays, PAM and IPEC-J2 cells were seeded in 24-well plates at a density of approximately 5×10^5 cells and 10^5 cells per well, respectively. PAM were allowed to attach for at least 2 hours and IPEC-J2 cells were allowed to grow for at least 24 hours. […] After 24 hours the invasion assay was performed as described by Boyen et al., 2009a. Finally the PAM and IPEC-J2 cells were washed 3 times and lysed for 10 min with 1% (v/v) Triton X-100 or 0.2% (w/v) sodium deocxycholate (Sigma-Aldrich), respectively and 10-fold dilutions were plated on BGA plates.

[4] = system: Salmonella Typhimurium in IPEC-J2 cells; test: Invasion assay in IPEC-J2 cells; format: cell-based, porcine; conditions: for invasion of Salmonella Typhimurium in IPEC-J2 cells: 1 μM
Description: as §2

[5] = system: Salmonella Typhimurium in PAM; test: Contribution of the cytoskeleton to cortisol induced intracellular proliferation in PAM; format: cell-based, porcine; conditions: 2 μM cytochalasin D and/or 20 μM nocodazole, 1 μM cortisol, 24 hours
Description: Therefore, PAM is were seeded in 24-well plates at a density of approximately 5×10^5 cells per well, allowed to attach for 2 hours and infected with Salmonella, as described in the iTRAQ analysis.

PAM = test: Cytotoxicity assay (LDH); format: cell-based, porcine; conditions: 0.001 to 100 μM
Description: Therefore PAM were seeded in a 96-well microplate at a density of approximately 2×10^5 cells per well and were allowed to attach for at least 2 hours. The IPEC-J2 cells were seeded and allowed to grow for at least 24 hours in a 96-well microplate at a density of approximately 2×10^4 cells per well in Dulbecco's modified Eagle's is medium (DMEM, Gibco) supplemented with 46.5% (v/v) Ham's F12 medium (Gibco), 5% (v/v) FKS and 1% insulin-transferrin-selenium-A supplement (ITS, Gibco).
The LDH test was used in accordance to the manufacturer's instructions and the absorbance was measured at 492 nm using a microplate ELISA reader (Multiscan M S, Thermo Labsystems, Helsinki, Finland).

pig = conditions: 2 mg dexamethasone per kg body weight; cited from earlier work
[6] = system: Salmonella Typhimurium WT; test: Effect of cortisol on the growth of Salmonella Typhimurium; conditions: 0.001 to 100 μM, LB broth, 24 hours
Description: Therefore, Salmonella Typhimurium was grown in LB broth whether or not supplemented with cortisol. The number of CFU per ml was determined at different time points by titration of 10-fold dilutions of the bacterial suspensions on BGA. After incubation for 24 hours at 37° C., the number of colonies was counted.

[7] = system: Salmonella Typhimurium WT; test: Effect of cortisol on the gene expression of Salmonella Typhimurium (microarray); conditions: 1 μM, stationary and logarithmic phase culture
Description: Two OD600 nm units of each culture were incubated in one-fifth culture volume 5% (v/v) phenol pH 4.3/95% (v/v) ethanol solution for 30 min on ice to stabilize the RNA. Subsequently, the RNA was extracted using the SV Total RNA purification kit (Promega, Leiden, the Netherlands).
Each condition was tested in triplicate and transcriptomic techniques involved Salmonella Typhimurium microarrays constructed at the Institute of Food Research, Norwich, UK, as described previously (Clements et al., 2002; Yberg et al., 2006). The microarray used in this study was the whole-genome SALSA cDNA microarray covering 5080 genes and data analysis was performed as described by Eriksson-Ygberg et al., 2006.

[8] = system: Salmonella Typhimurium infected PAM; test: iTRAQ comparative proteome study of cortisol treated Salmonella infected PAM; format: cell-based, porcine; conditions: 1 μM cortisol
Description: We used a gel-free approach called isobaric tags for relative and absolute quantification (iTRAQ) in which four different isobaric labels are used to tag N-termini and lysine side chains of four different samples with four different isobaric reagents. Upon collision-induced dissociation during MS/MS, the isobaric tags are released, which results in four unique reporter ions that are used to quantify the proteins in the four different samples (Ross et al., 2004).
Sample preparation: PAM were isolated and cultured as described in Verbrugghe et al. (2011), they were seeded in 175 cm^2 cell culture flasks at a density of approximately 5×10^7 cells per flask and were allowed to attach for 2 hours. Subsequently, PAM were washed 3 times with Hank's buffered salt solution with Ca^2+ and Mg^2+ (HBSS+, Gibco) and a gentamicin protection invasion assay was performed as described by Boyen et al. (2009a). Briefly, Salmonella was inoculated into the cell culture flasks at a multiplicity of infection (MOI) of 10:1. To synchronize the infection, the inoculated flasks were centrifuged at 365×g for 10 min and incubated for 30 min at 37° C. under 5% CO2. […] The supernatant was held on ice until further use and the pellet was dissolved and sonicated (6 times 30 sec), using an ultrasonic processor XL 2015 (Misonix, Farmingdale, N.Y., USA), in reagent 3 of the Ready Prep Sequential extraction kit (Bio-Rad, Hercules, Calif., USA). […] Protein concentration was determined using the Bradford Protein Assay (Thermo Fisher Scientific, Rockford, USA) according to the manufacterer's instructions.
Trypsin digest and iTRAQ labeling: Digest and labeling of the samples (100 μg proteins per sample) with iTRAQ reagents was performed according to the manufacturer's guidelines (AB Sciex, Foster City, Calif., USA). Individual samples of cortisol treated or untreated PAM were analyzed in the same run, making paired comparisons possible and minimizing technical variation. […] Each fraction was analyzed by nano LC-MSMS as described by Bijttebier et al. (2009). […]

[9] = system: Salmonella Typhimurium in PAM; conditions: 1 μM, 24 hours; cited from earlier work

NC[C@H](O)c1ccc(O)c(O)c1 [norepinephrine]
intracellular proliferation of Salmonella Typhimurium in PAM [1]: did neither affect | intracellular proliferation of Salmonella Typhimurium in IPEC-J2 cells ([2]; 1 μM): did neither affect | invasion of Salmonella Typhimurium in PAM [3]: did neither affect | invasion of Salmonella Typhimurium in IPEC-J2 cells [4]: did neither affect

C=C1[C@@H](C)[C@H]2[C@H](Cc3ccccc3)NC(=O)[C@]23[C@H](OC(C)=O)/C=C/[C@@](C)(O)C(=O)[C@@H](C)C/C=C/[C@H]3[C@@H]1O [cytochalasin D]
cortisol induced increased survival of the bacterium in PAM [5]: inhibition

C[C@@H]1C[C@H]2[C@@H]3CCC4=CC(=O)C=C[C@]4(C)[C@@]3(F)[C@@H](O)C[C@]2(C)[C@@]1(O)C(=O)CO [dexamethasone]
effect on cell viability (PAM): did not exert a notable effect | immunosuppression of the pig (pig): does not cause immunosuppression

CNC[C@H](O)c1ccc(O)c(O)c1 [Epinephrine, epinephrine]
intracellular proliferation of Salmonella Typhimurium in PAM [1]: did neither affect | intracellular proliferation of Salmonella Typhimurium in IPEC-J2 cells ([2]; 1 μM): did neither affect | invasion of Salmonella Typhimurium in PAM [3]: did neither affect | invasion of Salmonella Typhimurium in IPEC-J2 cells [4]: did neither affect

COC(=O)Nc1nc2ccc(C(=O)c3cccs3)cc2[nH]1 [nocodazole]
cortisol induced increased survival of the bacterium in PAM [5]: inhibition

C[C@]12CCC(=O)C=C1CC[C@@H]1[C@@H]2[C@@H](O)C[C@@]2(C)[C@H]1CC[C@]2(O)C(=O)CO [cortisol, Cortisol]
growth of Salmonella [6]: did not affect | gene expression levels by microarray analysis [7]: did not significantly affect | intracellular proliferation of Salmonella Typhimurium in treated PAM in comparison to non-treated cells ([1]; 24 hours): higher | concentration leading to a significant dose-dependent increase of the number of intracellular bacteria ([1]; PAM, 24 hours): 100 nM | intracellular proliferation of Salmonella Typhimurium in IPEC-J2 cells ([2]; 0.001 to 100 μM): did neither affect | invasion in PAM ([3]; 0.001 to 100 μM): did neither affect | invasion in IPEC-J2 cells ([4]; 0.001 to 100 μM): did neither affect | effect on cell viability (PAM): did not exert a notable effect | number of proteins more abundant in cortisol treated PAM [8]: 21 | number of proteins with higher levels in untreated PAM [8]: Two | number of proteins with recurrent expressional differences, treated vs untreated infected PAM [8]: 23 | number of intracellular Salmonella Typhimurium bacteria compared to untreated PAM [9]: significant increase

NCCc1ccc(O)c(O)c1 [dopamine]
intracellular proliferation of Salmonella Typhimurium in PAM [1]: did neither affect | intracellular proliferation of Salmonella Typhimurium in IPEC-J2 cells ([2]; 1 μM): did neither affect | invasion of Salmonella Typhimurium in PAM [3]: did neither affect | invasion of Salmonella Typhimurium in IPEC-J2 cells [4]: did neither affect
